From paper PMC9569447 (International Journal of Molecular Sciences, 2022)
Like-named read-outs stand apart in the source and are kept apart here.

Key:
[1] = tested on: diet-induced obese (DIO) Sprague Dawley rats; test: Post-treatment serum levels after the 22-day treatment; type: in vivo, rat; details: serum, 2 h post final injection after 22 days; mean ± SEM; n = 6 (Oxytocin n = 4)
Method: Cardiac puncture was used to collect blood for analysis 2 h post final injection. Commercially available enzyme-linked immunosorbent assays (ELISA) were used for quantitative assessment of leptin (cat. # EZRL-83K; MilliporeSigma, Burlington, MA, USA), insulin (cat. # EZRMI-13K; MilliporeSigma, Burlington, MA, USA), and adiponectin (cat. # EZRAPD-62K MilliporeSigma, Burlington, MA, USA). Serum samples were diluted 1:500 for the adiponectin ELISA using the sample diluent provided with the kit. All ELISAs were completed following the manufacturers recommendations. Levels of glucose, cholesterol (total, HDL, and calculated LDL), triglycerides, ALT, and AST were determined in the serum on a Modular P chemistry analyzer (Roche Diagnostics, Risch-Rotkreuz, Switzerland) by the University of Washington Nutrition and Obesity Research Center’s Analytic Core (Seattle, WA, USA).

[2] = native OXT; cited from earlier work
Text: This OXT analog is a full agonist at OXT receptor, and it addressed some of the limitations of using OXT as a weight loss therapeutic.

[3] = rat, in vivo, sc; cited from earlier work
[4] = mouse, in vivo, sc; cited from earlier work

CC[C@H](C)[C@@H]1NC(=O)[C@H](Cc2ccc(O)cc2)NC(=O)[C@@H](N)CSSC[C@@H](C(=O)N2CCC[C@H]2C(=O)N[C@@H](CC(C)C)C(=O)NCC(N)=O)NC(=O)[C@H](CC(N)=O)NC(=O)[C@H](CCC(N)=O)NC1=O [OXT, oxytocin]
ALT [1]: 40 ± 5 U/L | AST [1]: 128 ± 22 U/L | half-life in vivo [2]: ~5 min | CLplasma [3]: 17.1 mL/min/kg | T1/2 [3]: 7.2 min | Vd [3]: 0.085 L/kg | Cmax [4]: 216 nM | Free Cmax [4]: 191 nM | T1/2 [4]: 30 min | Tmax [4]: 15 min
